The results in this text go back to US12060570B2, “Vector-free intracellular delivery by reversible permeabilisation” (Avectas Limited, priority 2016, dated 2024).

Type in all cases: cell-based
In assay [1] the test system is A549 cells. The experiment in a line: Endocytosis inhibitor pretreatment, EGFP mRNA expression. The following applies: n=3; for Expression of EGFP mRNA delivered by soluporation in the presence of inhibitor: pretreatment: Dynasore 4 mM, chloropromazine 20 μM, Nystatin 20 μg/ml, EIPA 100 μM. As to the method: To test the contribution of alternate uptake mechanisms such as active pathways and internalization in endocytotic vesicles, A549 cells were pretreated with Dynasore (4 mM) or chloropromazine (20 μM) to inhibit clathrin-mediated endocytosis or Nystatin (20 μg/ml) or EIPA (100 μM) to inhibit caveolar-mediated endocytosis and micropinocytosis respectively.

For assay [2], the system named is A549 cells. Kind of assay: Resealing of plasma membrane after permeabilization, PI uptake by flow cytometry. Particulars: delivery solution without cargo, PI 100 μg/ml, n=3. As to the method: It was noted that the delivery method was very gentle on cells with little if any cell death or damage evident. […] To examine the rate of recovery of the cell membrane after permeabilization, delivery solution was applied to A549 cells in the absence of cargo. At subsequent time points (0 to 182.5 min), this delivery solution was removed and 50 μl PBS containing propidium iodide (PI) (100 μg/ml) is added. After 2 min incubation, the PI solution was removed and the cells were harvested. PI uptake was analysed by flow cytometry. For basal levels of PI uptake, untreated cells received 50 μl PI in PBS. […] After 6 minutes there is no further uptake. Thus not only do the cells load within 2 minutes of exposure to the delivery solution, but the membrane has effectively recovered its integrity within 6 minutes of beginning the procedure.

For assay [3], the system named is Jurkat cells. Kind of assay: Delivery of fluorescently-labelled proteins to Jurkat monolayer on transwell insert, flow cytometry. Particulars: soluporation. The procedure:
In order to form a monolayer of suspension cells that would allow the cells to be presented optimally to the spray, a transwell insert system was used. Cells were seeded at 1×10^6 in 400 μl per insert and the media was removed by placing the transwell insert (Greiner bio-one; CAT #655640; 12 Well ThinCert; PET 0.4 μm) into a device that allowed a vacuum to be applied to the bottom of the insert (between −0.5 bar and −0.65 bar; see FIGS. 14A, B, C). Once the media was removed the remaining cells formed a monolayer to which the spray can be applied. Non-adherent cells such as PBMCs, primary T-cells, or a cell line, e.g., Jurkat T cells, were added to the insert system, the vacuum applied and the insert placed into a 12 well plate and sprayed with delivery solution (10 lid) containing test payload such as either fluorescently-labelled beta-lactoglobulin (BLG), bovine serum albumin (BSA) or ovalburnin (OVA). Stop solution (50 μl) was applied after a 2 minute incubation and 30 s later normal media (100 μl) was applied.
On the technique in general: Flow cytometry measures light scatter and fluorescence of single cells or particles in a stream.

Where only a bound is given, the exact number is not on record here.

On to `O=C(N/N=C/c1ccc(O)c(O)c1)c1cc2ccccc2cc1O` [Dynasore], for which the “GFP expression in lipofected cells (Lipofectamine 2000)” value in assay [1] (Dynasore treated) is reported as “significantly reduced”. In addition, the “Expression of EGFP mRNA delivered by soluporation in the presence of inhibitor” value (“Expression of EGFP mRNA delivered … of inhibitor” for short) in assay [1] is reported as “remained unchanged”. Consider `CCN(c1nc(N)c(C(=O)NC(=N)N)nc1Cl)C(C)C` [EIPA], for which, in assay [1], the “Expression of EGFP mRNA delivered … of inhibitor” value is recorded as “remained unchanged”. Regarding `C[C@@H]1[C@H](O)[C@@H](C)/C=C/C=C/CC/C=C/C=C/C=C/C=C/C(O[C@H]2O[C@H](C)[C@@H](O)[C@H](N)[C@@H]2O)CC2O[C@](O)(CC(O)C(O)CCC(O)CC(O)CC(O)CC(=O)O[C@H]1C)CC(O)C2C(=O)O` (some centres unmarked) [Nystatin], the “Expression of EGFP mRNA delivered … of inhibitor” value in assay [1] is given as “remained unchanged”.

As to `CN(C)CCCN1c2ccccc2Sc2ccc(Cl)cc21` [chloropromazine], the “Expression of EGFP mRNA delivered … of inhibitor” value in assay [1] is “remained unchanged”. For the compound `CC[N+](C)(CC)CCC[n+]1c(-c2ccccc2)c2cc(N)ccc2c2ccc(N)cc21.[I-].[I-]` [propidium iodide], the “time post treatment over which cells remain permeable to PI before resealing” value in assay [2] was no more than 6 min.

For the compound bovine serum albumin [BSA], the “Expression levels (fluorescently-labelled protein)” value in assay [3] came out at 28.5%. Same read-out and setting: to ovalbumin belongs 15.3%.
